Reference: patent US11370798B2 (Vertex Pharmaceuticals Incorporated, priority 2012, dated 2022)

Test system: HCT116 colorectal cancer cells
Assay: Cisplatin sensitization assay (96 h cell viability MTS);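 note: Test-compound concentration that lowers the Cisplatin IC50 by a set fold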
Assay type: cell-based
Conditions: compound and Cisplatin added simultaneously, Cisplatin sensitization value
How it was run: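 Compound and cisplatin added together as a full matrix of 2-fold serial dilutions from a top final concentration of 10 μM; cells incubated 96 h at 37° C, 5% CO2. Viability then read by MTS after 1 h further incubation; sensitization value reported in μM bins.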

Structure (SMILES) | Cisplatin Sensitization Assay
CC(C#N)c1cnc2c(C(=O)Nc3cnccc3N3CCN(C4COC4)CC3)c(N)nn2c1 (stereo not shown) [I-N-143, 2-amino-6-(1-cyanoethyl)-N-(4-(4-(oxetan-3-yl)piperazin-1-yl)pyridin-3-yl)pyrazolo[1,5-a]pyrimidine-3-carboxamide] | ++ (Cisplatin sensitization value>0.02 μM but <0.2 μM)
Cc1ncn(-c2ccncc2NC(=O)c2c(N)nn3cc(F)cnc23)n1 [I-N-161, 2-amino-6-fluoro-N-(4-(3-methyl-1H-1,2,4-triazol-1-yl)pyridin-3-yl)pyrazolo[1,5-a]pyrimidine-3-carboxamide] | + (Cisplatin sensitization value>0.2 μM but <5 μM)
Nc1nn2cc(F)cnc2c1C(=O)Nc1cncc(F)c1N1CCC(C(=O)NCCN2CCC2)CC1 [I-G-42, 2-amino-N-(4-(4-((2-(azetidin-1-yl)ethyl)carbamoyl)piperidin-1-yl)-5-fluoropyridin-3-yl)-6-fluoropyrazolo[1,5-a]pyrimidine-3-carboxamide] | +++ (Cisplatin sensitization value of <0.02 μM)
Nc1nn2cc(F)cnc2c1C(=O)Nc1cnccc1-c1ccc(C(=O)N2CCN(C3COC3)CC2)cc1 [I-C-49, 2-amino-6-fluoro-N-(4-(4-(4-(oxetan-3-yl)piperazine-1-carbonyl)phenyl)pyridin-3-yl)pyrazolo[1,5-a]pyrimidine-3-carboxamide] | +++ (Cisplatin sensitization value of <0.02 μM)
Nc1nn2cc(F)cnc2c1C(=O)Nc1cncc(Cl)c1N1CCCC1 [I-N-281, 2-amino-N-(5-chloro-4-(pyrrolidin-1-yl)pyridin-3-yl)-6-fluoropyrazolo[1,5-a]pyrimidine-3-carboxamide] | +++ (Cisplatin sensitization value of <0.02 μM)
N#CCc1cnc2c(C(=O)Nc3cnccc3N3CCNCC3)c(N)nn2c1 [I-N-89, 2-amino-6-(cyanomethyl)-N-(4-(piperazin-1-yl)pyridin-3-yl)pyrazolo[1,5-a]pyrimidine-3-carboxamide] | ++ (Cisplatin sensitization value>0.02 μM but <0.2 μM)
Nc1nn2cc(F)cnc2c1C(=O)Nc1cncc(Cl)c1N1CCN2CCN(C3COC3)CC2C1 (stereo not shown) [I-N-38, 2-amino-N-(5-chloro-4-(8-(oxetan-3-yl)hexahydro-1H-pyrazino[1,2-a]pyrazin-2(6H)-yl)pyridin-3-yl)-6-fluoropyrazolo[1,5-a]pyrimidine-3-carboxamide] | ++ (Cisplatin sensitization value>0.02 μM but <0.2 μM)
Nc1nn2cc(F)cnc2c1C(=O)Nc1cncc(F)c1N1CCC(S(=O)(=O)N2CCN3CCC2CC3)CC1 [I-N-273, N-(4-(4-(1,4-diazabicyclo[3.2.2]nonan-4-ylsulfonyl)piperidin-1-yl)-5-fluoropyridin-3-yl)-2-amino-6-fluoropyrazolo[1,5-a]pyrimidine-3-carboxamide] | +++ (Cisplatin sensitization value of <0.02 μM)
CN1CCOC2(CCN(c3ccncc3NC(=O)c3c(N)nn4cc(F)cnc34)CC2)C1 [I-N-183, 2-amino-6-fluoro-N-(4-(4-methyl-1-oxa-4,9-diazaspiro[5.5]undecan-9-yl)pyridin-3-yl)pyrazolo[1,5-a]pyrimidine-3-carboxamide] | +++ (Cisplatin sensitization value of <0.02 μM)
C[C@H]1CN(C(=O)C2CCN(c3c(F)cncc3NC(=O)c3c(N)nn4cc(F)cnc34)CC2)CCN1C [I-G-47, (S)-2-amino-N-(4-(4-(3,4-dimethylpiperazine-1-carbonyl)piperidin-1-yl)-5-fluoropyridin-3-yl)-6-fluoropyrazolo[1,5-a]pyrimidine-3-carboxamide] | +++ (Cisplatin sensitization value of <0.02 μM)
Cn1ncnc1-c1ccncc1NC(=O)c1c(N)nn2cc(F)cnc12 [I-C-65, 2-amino-6-fluoro-N-(4-(1-methyl-1H-1,2,4-triazol-5-yl)pyridin-3-yl)pyrazolo[1,5-a]pyrimidine-3-carboxamide] | ++ (Cisplatin sensitization value>0.02 μM but <0.2 μM)
Nc1nn2cc(Cl)cnc2c1C(=O)Nc1cnccc1O[C@H]1CCNC1 [I-O-76, (S)-2-amino-6-chloro-N-(4-(pyrrolidin-3-yloxy)pyridin-3-yl)pyrazolo[1,5-a]pyrimidine-3-carboxamide] | ++ (Cisplatin sensitization value>0.02 μM but <0.2 μM)
CN1CCC(c2ccncc2NC(=O)c2c(N)nn3cc(C(C)(C)C#N)cnc23)CC1 [I-C-23, 2-amino-6-(2-cyanopropan-2-yl)-N-(4-(1-methylpiperidin-4-yl)pyridin-3-yl)pyrazolo[1,5-a]pyrimidine-3-carboxamide] | + (Cisplatin sensitization value>0.2 μM but <5 μM)
Nc1nn2cc(F)cnc2c1C(=O)Nc1cncc(Cl)c1N1CCNCC1 [I-N-126, 2-amino-N-(5-chloro-4-(piperazin-1-yl)pyridin-3-yl)-6-fluoropyrazolo[1,5-a]pyrimidine-3-carboxamide] | +++ (Cisplatin sensitization value of <0.02 μM)
Cc1ncnn1-c1c(F)cncc1NC(=O)c1c(N)nn2cc(F)cnc12 [I-N-242, 2-amino-6-fluoro-N-(5-fluoro-4-(5-methyl-1H-1,2,4-triazol-1-yl)pyridin-3-yl)pyrazolo[1,5-a]pyrimidine-3-carboxamide] | + (Cisplatin sensitization value>0.2 μM but <5 μM)
CN1CCN(c2ccncc2NC(=O)c2c(N)nn3cc(F)cnc23)CC1 [I-N-3, 2-amino-6-fluoro-N-(4-(4-methylpiperazin-1-yl)pyridin-3-yl)pyrazolo[1,5-a]pyrimidine-3-carboxamide] | +++ (Cisplatin sensitization value of <0.02 μM)
C[N+]1([O-])CCN(C(=O)C2CCN(c3c(F)cncc3NC(=O)c3c(N)nn4cc(F)cnc34)CC2)CC1 [I-G-95, 4-(1-(3-(2-amino-6-fluoropyrazolo[1,5-a]pyrimidine-3-carboxamido)-5-fluoropyridin-4-yl)piperidine-4-carbonyl)-1-methylpiperazine 1-oxide] | +++ (Cisplatin sensitization value of <0.02 μM)
N#CCc1cnc2c(C(=O)Nc3cnccc3O[C@@H]3CCOC3)c(N)nn2c1 [I-O-31, (R)-2-amino-6-(cyanomethyl)-N-(4-((tetrahydrofuran-3-yl)oxy)pyridin-3-yl)pyrazolo[1,5-a]pyrimidine-3-carboxamide] | +++ (Cisplatin sensitization value of <0.02 μM)
Nc1nn2cc(F)cnc2c1C(=O)Nc1cnccc1-c1ccc(C(=O)N2CCN(C3COC3)CC2)nc1 [I-C-52, 2-amino-6-fluoro-N-(6-(4-(oxetan-3-yl)piperazine-1-carbonyl)-[3,4′-bipyridin]-3′-yl)pyrazolo[1,5-a]pyrimidine-3-carboxamide] | ++ (Cisplatin sensitization value>0.02 μM but <0.2 μM)
Nc1nn2cc(F)cnc2c1C(=O)Nc1cncc(F)c1N1CCC(C(=O)N2CC3CCC(C2)N3)CC1 [I-G-44, N-(4-(4-(3,8-diazabicyclo[3.2.1]octane-3-carbonyl)piperidin-1-yl)-5-fluoropyridin-3-yl)-2-amino-6-fluoropyrazolo[1,5-a]pyrimidine-3-carboxamide] | +++ (Cisplatin sensitization value of <0.02 μM)
Nc1nn2cc(F)cnc2c1C(=O)Nc1cncc(Cl)c1N1CCC(C(=O)N2CCNCC2)CC1 [I-G-48, 2-amino-N-(5-chloro-4-(4-(piperazine-1-carbonyl)piperidin-1-yl)pyridin-3-yl)-6-fluoropyrazolo[1,5-a]pyrimidine-3-carboxamide] | +++ (Cisplatin sensitization value of <0.02 μM)
Nc1nn2cc(F)cnc2c1C(=O)Nc1cnccc1OC1CC[S+]([O-])CC1 (stereo not shown) [I-O-44, 2-amino-6-fluoro-N-(4-((1-oxidotetrahydro-2H-thiopyran-4-yl)oxy)pyridin-3-yl)pyrazolo[1,5-a]pyrimidine-3-carboxamide] | ++ (Cisplatin sensitization value>0.02 μM but <0.2 μM)
COC1CN(C(=O)C2CCN(c3ccncc3NC(=O)c3c(N)nn4cc(F)cnc34)CC2)C1 [I-G-78, 2-amino-6-fluoro-N-(4-(4-(3-methoxyazetidine-1-carbonyl)piperidin-1-yl)pyridin-3-yl)pyrazolo[1,5-a]pyrimidine-3-carboxamide] | +++ (Cisplatin sensitization value of <0.02 μM)
CCOc1ccncc1NC(=O)c1c(N)nn2cc(CC#N)cnc12 [I-O-28, 2-amino-6-(cyanomethyl)-N-(4-ethoxypyridin-3-yl)pyrazolo[1,5-a]pyrimidine-3-carboxamide] | +++ (Cisplatin sensitization value of <0.02 μM)
CN1CCN(C(=O)C2(C#N)CCN(c3c(F)cncc3NC(=O)c3c(N)nn4cc(F)cnc34)CC2)CC1 [I-G-25, 2-amino-N-(4-(4-cyano-4-(4-methylpiperazine-1-carbonyl)piperidin-1-yl)-5-fluoropyridin-3-yl)-6-fluoropyrazolo[1,5-a]pyrimidine-3-carboxamide] | +++ (Cisplatin sensitization value of <0.02 μM)
Nc1nn2cc(Cl)cnc2c1C(=O)Nc1cnccc1C1CCN(C2COC2)CC1 [I-C-11, 2-amino-6-chloro-N-(4-(1-(oxetan-3-yl)piperidin-4-yl)pyridin-3-yl)pyrazolo[1,5-a]pyrimidine-3-carboxamide] | +++ (Cisplatin sensitization value of <0.02 μM)
CC1(N2CCN(C(=O)C3CCN(c4c(F)cncc4NC(=O)c4c(N)nn5cc(F)cnc45)CC3)CC2)COC1 [I-G-92, 2-amino-6-fluoro-N-(5-fluoro-4-(4-(4-(3-methyloxetan-3-yl)piperazine-1-carbonyl)piperidin-1-yl)pyridin-3-yl)pyrazolo[1,5-a]pyrimidine-3-carboxamide] | +++ (Cisplatin sensitization value of <0.02 μM)
COC1CN(C2CCN(c3ccncc3NC(=O)c3c(N)nn4cc(Cl)cnc34)CC2)C1 [I-N-107, 2-amino-6-chloro-N-(4-(4-(3-methoxyazetidin-1-yl)piperidin-1-yl)pyridin-3-yl)pyrazolo[1,5-a]pyrimidine-3-carboxamide] | +++ (Cisplatin sensitization value of <0.02 μM)
